Experimental data: paper PMC6001782 (Chemistry (Weinheim an Der Bergstrasse, Germany), 2018)

Target: T1, BtGH99 (Bacteroides thetaiotaomicron, UniProt Q8A109)
T1 sequence (Q8A109 18-382): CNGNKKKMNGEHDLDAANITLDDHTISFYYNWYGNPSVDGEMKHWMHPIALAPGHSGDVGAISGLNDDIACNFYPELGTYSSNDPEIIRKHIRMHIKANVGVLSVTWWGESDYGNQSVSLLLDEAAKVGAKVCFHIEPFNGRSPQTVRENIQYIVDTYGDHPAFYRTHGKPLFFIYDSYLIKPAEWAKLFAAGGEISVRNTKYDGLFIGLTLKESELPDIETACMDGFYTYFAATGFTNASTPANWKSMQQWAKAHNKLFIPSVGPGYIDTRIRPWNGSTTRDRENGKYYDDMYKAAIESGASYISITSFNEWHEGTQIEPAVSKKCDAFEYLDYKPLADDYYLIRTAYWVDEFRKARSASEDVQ
Assay: isothermal titration calorimetry
Type: binding

Kd: 97.7 ± 4.9 µM
Structure (SMILES): N[C@@H]1CN[C@H](CO)[C@@H](O)[C@@H]1O[C@H]1O[C@H](CO)[C@@H](O)[C@H](O)[C@@H]1O [compound 1, α‐D‐Mannopyranosyl‐(1→3)‐2‐amino‐1,2,5‐trideoxy‐1,5‐imino‐D‐mannitol]
